Measured values as given in ChEMBL document CHEMBL5346927, “Discovery of a novel 1H-pyrazole- [3,4-b] pyridine-based lysine demethylase 5B inhibitor with potential anti-prostate cancer activity that perturbs the phosphoinositide 3-kinase/AKT pathway” (Eur J Med Chem, 2023).
Active and inactive are the calls of the source. The rule behind the calls is not given here.

Assays:
[1] = Toxicity in BALB/C nude mouse xenografted with human PC-3 cells assessed as heart damage at 25 mg/kg, IG administered for 25 days by H&E staining based analysis; assay type: organism-based; conditions: in vivo, po, 600 h, time 25 day
[2] = Toxicity in BALB/C nude mouse xenografted with human PC-3 cells assessed as decrease in cell density at 25 mg/kg, IG administered for 25 days by H&E staining based analysis; assay type: organism-based; conditions: in vivo, po, 600 h, time 25 day
[3] = Toxicity in BALB/C nude mouse xenografted with human PC-3 cells assessed as liver damage at 25 mg/kg, IG administered for 25 days by H&E staining based analysis; assay type: organism-based; conditions: in vivo, po, 600 h, time 25 day
[4] = Toxicity in BALB/C nude mouse xenografted with human PC-3 cells assessed as reduction in prostate gland cells at 25 mg/kg, IG administered for 25 days by H&E staining based analysis; assay type: organism-based; conditions: in vivo, po, 600 h, time 25 day
[5] = Toxicity in BALB/C nude mouse xenografted with human PC-3 cells assessed as indistinct prostate tube wall at 25 mg/kg, IG administered for 25 days by H&E staining based analysis; assay type: organism-based; conditions: in vivo, po, 600 h, time 25 day
[6] = Toxicity in BALB/C nude mouse xenografted with human PC-3 cells assessed as irregular fissures at 25 mg/kg, IG administered for 25 days by H&E staining based analysis; assay type: organism-based; conditions: in vivo, po, 600 h, time 25 day
PC-3 [7] = assay: Antitumor activity against human PC-3 cells xenografted in BALB/C nude mice assessed as decrease in tumor volume at 25 to 50 mg/kg, IG administered for 25 days; assay type: functional, organism-based; conditions: dose 25-50 mg/kg, time 25.0 day
[8] = Toxicity in BALB/C nude mouse xenografted with human PC-3 cells assessed as spleen damage at 25 mg/kg, IG administered for 25 days by H&E staining based analysis; assay type: organism-based; conditions: in vivo, po, 600 h, time 25 day
PC-3 [9] = assay: Antitumor activity against human PC-3 cells xenografted in BALB/C nude mice assessed as decrease in tumor weight at 25 mg/kg, IG administered for 25 days; assay type: functional, organism-based; conditions: time 25.0 day
[10] = Toxicity in BALB/C nude mouse xenografted with human PC-3 cells assessed as effect on body weight at 25 mg/kg, IG administered for 25 days; assay type: organism-based; conditions: in vivo, po, 600 h, time 25 day
PC-3 [11] = assay: Inhibition of PI3K/AKT pathway in human PC-3 cells assessed as decrease in P110alpha level at 20 uM by Western blot analysis; assay type: cell-based
LNCaP = assay: Antiproliferative activity against human LNCaP cells assessed as inhibition of cell proliferation incubated for 72 hrs by MTT assay; assay type: functional, cell-based
PC-3 [12] = assay: Antitumor activity against human PC-3 cells assessed as inhibition of cell proliferation incubated for 72 hrs by MTT assay; assay type: functional, cell-based; conditions: PC-3, 72 h
PC-3 [13] = assay: Inhibition of PI3K/AKT pathway in human PC-3 cells assessed as decrease in AKT phosphorylation at Thr308 residue at 20 uM by Western blot analysis; assay type: cell-based
[14] = molecular target: T1, Lysine-specific demethylase 5B (Homo sapiens, UniProt Q9UGL1); assay: Inhibition of KDM5B (unknown origin)
T1 sequence (Q9UGL1 whole entry): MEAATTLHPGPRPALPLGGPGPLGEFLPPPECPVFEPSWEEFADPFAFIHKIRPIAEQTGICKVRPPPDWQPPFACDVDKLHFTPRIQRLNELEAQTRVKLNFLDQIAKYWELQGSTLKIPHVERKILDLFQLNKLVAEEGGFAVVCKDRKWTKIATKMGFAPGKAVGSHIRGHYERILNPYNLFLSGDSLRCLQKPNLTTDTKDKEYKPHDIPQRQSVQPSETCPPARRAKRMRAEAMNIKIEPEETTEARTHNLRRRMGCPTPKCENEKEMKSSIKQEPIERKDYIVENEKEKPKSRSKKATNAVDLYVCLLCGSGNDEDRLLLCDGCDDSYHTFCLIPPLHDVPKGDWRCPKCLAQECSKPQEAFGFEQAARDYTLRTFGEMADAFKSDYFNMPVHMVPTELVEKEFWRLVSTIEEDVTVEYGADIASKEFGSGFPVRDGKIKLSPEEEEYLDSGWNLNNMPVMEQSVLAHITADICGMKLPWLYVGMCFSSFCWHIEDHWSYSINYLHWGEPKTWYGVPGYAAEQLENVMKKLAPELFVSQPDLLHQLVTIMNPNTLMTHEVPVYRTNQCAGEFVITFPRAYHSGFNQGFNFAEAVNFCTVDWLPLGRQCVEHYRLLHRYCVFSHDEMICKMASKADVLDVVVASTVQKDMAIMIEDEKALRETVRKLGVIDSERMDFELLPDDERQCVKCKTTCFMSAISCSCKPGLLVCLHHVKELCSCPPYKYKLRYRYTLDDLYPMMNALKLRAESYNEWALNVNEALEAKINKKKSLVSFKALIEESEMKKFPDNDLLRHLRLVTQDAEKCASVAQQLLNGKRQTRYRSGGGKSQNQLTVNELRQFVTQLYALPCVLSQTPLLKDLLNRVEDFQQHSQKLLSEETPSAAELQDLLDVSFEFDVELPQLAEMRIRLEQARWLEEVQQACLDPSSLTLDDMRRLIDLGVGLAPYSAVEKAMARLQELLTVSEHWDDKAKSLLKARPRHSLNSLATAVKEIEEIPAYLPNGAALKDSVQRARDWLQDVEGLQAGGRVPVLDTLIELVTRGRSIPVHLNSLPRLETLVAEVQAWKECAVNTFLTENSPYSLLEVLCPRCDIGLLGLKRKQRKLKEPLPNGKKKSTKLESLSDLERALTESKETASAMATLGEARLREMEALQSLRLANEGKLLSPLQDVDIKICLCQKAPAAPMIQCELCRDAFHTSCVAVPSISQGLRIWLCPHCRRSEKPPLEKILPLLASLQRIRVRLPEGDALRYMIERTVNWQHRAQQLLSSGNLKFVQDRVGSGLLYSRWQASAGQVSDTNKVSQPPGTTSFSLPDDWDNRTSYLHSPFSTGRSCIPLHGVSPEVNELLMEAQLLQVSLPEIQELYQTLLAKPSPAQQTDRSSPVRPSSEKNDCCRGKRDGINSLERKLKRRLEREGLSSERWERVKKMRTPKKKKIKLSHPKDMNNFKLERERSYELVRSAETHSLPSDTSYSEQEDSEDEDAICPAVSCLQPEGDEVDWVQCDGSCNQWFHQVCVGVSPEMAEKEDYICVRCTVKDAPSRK

MGC-803 = assay: Antitumor activity against human MGC-803 cells assessed as inhibition of cell proliferation incubated for 72 hrs by MTT assay; assay type: functional, cell-based; conditions: MGC-803, 72 h
HepG2 = assay: Antitumor activity against human HepG2 cells assessed as inhibition of cell proliferation incubated for 72 hrs by MTT assay; assay type: functional, cell-based; conditions: HepG2, 72 h
PC-3 [15] = assay: Inhibition of PI3K/AKT pathway in human PC-3 cells assessed as decrease in AKT phosphorylation at Ser473 residue at 20 uM by Western blot analysis; assay type: cell-based
PC-3 [16] = assay: Inhibition of PI3K/AKT pathway in human PC-3 cells assessed as decrease in P85 level at 20 uM by Western blot analysis; assay type: cell-based
MCF7 = assay: Antitumor activity against human MCF7 cells assessed as inhibition of cell proliferation incubated for 72 hrs by MTT assay; assay type: functional, cell-based; conditions: MCF7, 72 h
DU-145 = assay: Antiproliferative activity against human DU-145 cells assessed as inhibition of cell proliferation incubated for 72 hrs by MTT assay; assay type: functional, cell-based; conditions: DU-145, 72 h
[17] = molecular target: Ubiquitin carboxyl-terminal hydrolase 7 (Homo sapiens) (UniProt Q93009); assay: Inhibition of USP7 (unknown origin) at 10 uM relative to control
Sequence of Ubiquitin carboxyl-terminal hydrolase 7 (Homo sapiens) (Q93009 whole entry, looked up): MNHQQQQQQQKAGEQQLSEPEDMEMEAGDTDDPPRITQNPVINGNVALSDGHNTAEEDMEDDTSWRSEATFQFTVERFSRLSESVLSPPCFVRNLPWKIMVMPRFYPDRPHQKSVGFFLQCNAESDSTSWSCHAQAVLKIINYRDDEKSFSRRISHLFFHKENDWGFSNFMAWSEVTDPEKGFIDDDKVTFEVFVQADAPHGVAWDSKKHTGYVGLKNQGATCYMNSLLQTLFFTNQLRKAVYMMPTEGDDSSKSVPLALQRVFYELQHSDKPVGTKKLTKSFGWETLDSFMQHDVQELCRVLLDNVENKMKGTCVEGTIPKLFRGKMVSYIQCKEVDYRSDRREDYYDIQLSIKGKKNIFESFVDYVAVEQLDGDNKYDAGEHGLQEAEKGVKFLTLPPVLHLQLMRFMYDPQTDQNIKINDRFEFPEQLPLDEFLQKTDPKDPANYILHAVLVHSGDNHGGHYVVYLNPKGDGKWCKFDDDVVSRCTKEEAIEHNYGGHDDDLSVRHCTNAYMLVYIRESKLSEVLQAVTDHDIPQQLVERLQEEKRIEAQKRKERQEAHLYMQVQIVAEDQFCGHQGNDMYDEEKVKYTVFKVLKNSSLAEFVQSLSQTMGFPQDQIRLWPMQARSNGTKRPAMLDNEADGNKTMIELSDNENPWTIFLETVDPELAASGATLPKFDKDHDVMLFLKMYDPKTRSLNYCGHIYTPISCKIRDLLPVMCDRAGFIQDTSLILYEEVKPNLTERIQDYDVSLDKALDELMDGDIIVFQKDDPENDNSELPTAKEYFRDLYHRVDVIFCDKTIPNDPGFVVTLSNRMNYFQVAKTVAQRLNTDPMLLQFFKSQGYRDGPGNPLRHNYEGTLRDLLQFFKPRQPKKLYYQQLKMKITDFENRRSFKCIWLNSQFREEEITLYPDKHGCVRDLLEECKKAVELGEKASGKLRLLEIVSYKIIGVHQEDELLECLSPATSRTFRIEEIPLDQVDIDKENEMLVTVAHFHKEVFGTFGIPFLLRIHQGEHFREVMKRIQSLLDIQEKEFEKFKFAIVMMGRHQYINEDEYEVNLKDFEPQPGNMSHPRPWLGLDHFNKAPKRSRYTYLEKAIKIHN

[18] = molecular target: T2, Protein deacetylase HDAC6 (Homo sapiens) (UniProt Q9UBN7); assay: Inhibition of HDAC6 (unknown origin) at 10 uM relative to control
T2 sequence (whole entry): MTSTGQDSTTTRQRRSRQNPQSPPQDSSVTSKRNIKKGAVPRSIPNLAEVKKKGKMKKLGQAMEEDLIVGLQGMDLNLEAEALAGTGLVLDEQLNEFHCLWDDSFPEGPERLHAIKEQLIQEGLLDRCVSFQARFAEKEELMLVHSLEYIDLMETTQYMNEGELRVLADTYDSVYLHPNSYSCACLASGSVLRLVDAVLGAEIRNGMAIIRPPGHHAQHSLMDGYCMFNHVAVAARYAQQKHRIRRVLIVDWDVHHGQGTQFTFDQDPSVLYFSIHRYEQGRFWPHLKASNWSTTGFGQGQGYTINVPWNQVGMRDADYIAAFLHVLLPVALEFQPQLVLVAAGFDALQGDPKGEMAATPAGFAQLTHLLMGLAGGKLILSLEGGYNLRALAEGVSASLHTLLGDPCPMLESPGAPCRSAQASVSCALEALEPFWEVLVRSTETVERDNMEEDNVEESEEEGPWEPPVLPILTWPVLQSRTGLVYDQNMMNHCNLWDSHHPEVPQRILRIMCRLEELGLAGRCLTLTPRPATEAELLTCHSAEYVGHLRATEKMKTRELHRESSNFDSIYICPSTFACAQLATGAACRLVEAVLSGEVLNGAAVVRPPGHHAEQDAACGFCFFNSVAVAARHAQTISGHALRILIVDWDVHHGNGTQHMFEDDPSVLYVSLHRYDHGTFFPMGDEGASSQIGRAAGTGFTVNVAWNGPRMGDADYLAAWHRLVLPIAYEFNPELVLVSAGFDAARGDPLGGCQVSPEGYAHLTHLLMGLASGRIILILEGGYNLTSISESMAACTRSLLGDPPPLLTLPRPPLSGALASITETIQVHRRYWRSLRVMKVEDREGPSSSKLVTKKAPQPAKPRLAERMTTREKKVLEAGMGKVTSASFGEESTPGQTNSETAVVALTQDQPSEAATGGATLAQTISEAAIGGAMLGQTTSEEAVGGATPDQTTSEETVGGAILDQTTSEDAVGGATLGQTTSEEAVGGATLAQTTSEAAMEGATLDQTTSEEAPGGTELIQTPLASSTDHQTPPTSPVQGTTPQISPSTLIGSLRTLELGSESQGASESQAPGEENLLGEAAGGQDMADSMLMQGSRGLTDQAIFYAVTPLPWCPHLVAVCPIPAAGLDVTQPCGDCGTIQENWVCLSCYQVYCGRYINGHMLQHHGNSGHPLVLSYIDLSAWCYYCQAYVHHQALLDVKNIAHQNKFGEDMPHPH

[19] = molecular target: T1, Lysine-specific demethylase 5B; assay: Inhibition of KDM5B (unknown origin) at 10 uM relative to control
[20] = molecular target: S-phase kinase-associated protein 2 (Homo sapiens) (UniProt Q13309); assay: Inhibition of SKP2 (unknown origin) at 10 uM relative to control
Sequence of S-phase kinase-associated protein 2 (Homo sapiens) (Q13309 whole entry): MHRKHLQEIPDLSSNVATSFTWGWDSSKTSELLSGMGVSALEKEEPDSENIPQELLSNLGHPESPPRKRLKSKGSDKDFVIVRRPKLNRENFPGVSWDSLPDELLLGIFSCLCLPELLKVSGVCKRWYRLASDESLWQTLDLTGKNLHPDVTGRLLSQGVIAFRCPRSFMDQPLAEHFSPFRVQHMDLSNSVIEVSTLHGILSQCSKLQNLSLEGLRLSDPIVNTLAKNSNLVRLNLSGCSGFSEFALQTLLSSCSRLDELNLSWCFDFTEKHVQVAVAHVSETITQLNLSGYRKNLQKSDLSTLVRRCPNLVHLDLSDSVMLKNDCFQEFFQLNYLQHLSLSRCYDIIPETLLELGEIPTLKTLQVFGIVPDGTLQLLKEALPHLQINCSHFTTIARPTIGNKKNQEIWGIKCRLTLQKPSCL

[21] = molecular target: Lysine-specific histone demethylase 1A (Homo sapiens) (UniProt O60341); assay: Inhibition of LSD1 (unknown origin) at 10 uM relative to control
[22] = molecular target: Bromodomain-containing protein 4 (Homo sapiens) (UniProt O60885); assay: Inhibition of BRD4 (unknown origin) at 10 uM relative to control

**Q.** For COc1cccc2c1C(=O)c1c(O)c3c(c(O)c1C2=O)C[C@@](O)(C(=O)CO)C[C@@H]3O[C@H]1C[C@H](N)[C@H](O)[C@H](C)O1 [DOXORUBICIN], which Activity [1] is on record?
**A.** Toxic

**Q.** And the Activity [2]?
**A.** Toxic

**Q.** And the Activity [3]?
**A.** Toxic

**Q.** What about the Activity [4] of the same compound?
**A.** Toxic

**Q.** What about the Activity [5] of the same compound?
**A.** Toxic

**Q.** What about the Activity [6] of the same compound?
**A.** Toxic

**Q.** And the Activity (PC-3 [7])?
**A.** Active

**Q.** And the Activity [8]?
**A.** Toxic

**Q.** And the Activity (PC-3 [9])?
**A.** Active

**Q.** What about the Activity [10] of the same compound?
**A.** Toxic

**Q.** Which inhibition (PC-3 [11]) does the source give for CC(C)c1c(-c2ccccc2)[nH]c2c(C#N)cnn2c1=O here?
**A.** Active

**Q.** And the IC50 (LNCaP)?
**A.** 29.6 µM

**Q.** And the IC50 (PC-3 [12])?
**A.** 26.7 µM

**Q.** What about the inhibition (PC-3 [13]) of the same compound?
**A.** Active

**Q.** What about the IC50 [14] of the same compound?
**A.** 0.011 µM

**Q.** What about the IC50 (MGC-803) of the same compound?
**A.** 33.7 µM

**Q.** And the IC50 (HepG2)?
**A.** 42.6 µM

**Q.** And the inhibition (PC-3 [15])?
**A.** Active

**Q.** What about the inhibition (PC-3 [16]) of the same compound?
**A.** Active

**Q.** What about the IC50 (MCF7) of the same compound?
**A.** 35.4 µM

**Q.** And the IC50 (DU-145)?
**A.** 35.9 µM

**Q.** Which inhibition [17] does the source give for CC(C)n1ncc2c(C(=O)NCc3cn(Cc4ccccc4)nn3)cccc21 here?
**A.** 16%

**Q.** What about the inhibition [18] of the same compound?
**A.** 27%

**Q.** What about the inhibition [19] of the same compound?
**A.** 56%

**Q.** And the inhibition [20]?
**A.** 11%

**Q.** What about the inhibition [21] of the same compound?
**A.** 31%

**Q.** What about the inhibition [22] of the same compound?
**A.** 9%
